Results on 36 molecules are retold here after patent US20050197350A1, “Novel quinoline, tetrahydroquinazoline, and pyrimidine derivatives and methods of treatment related to the use thereof” (TAISHO PHARMACEUTICAL CO., LTD., priority 2003, published 2005).

SMILES strings stand for the structures.

One experiment concerns MCH receptors. The experiment can be described thus: MCH receptor activity class (method not given). Particulars: MCH receptor activity class 1-3 (percent of control at 10^-7 M or IC50).
Consider `Cc1cccc(NC(=S)N[C@H]2CC[C@@H](Nc3nccc(N(C)C)n3)CC2)c1C` [compound 2344], for which the class was 3 (Class 3 The value of percent of control at 10^−7 M was more than 60% or the value of IC50 was more than 200 nM.).

Staying with this experiment, now noted: MCH receptor; class by percent of control at 10^-7 M or IC50.
As to `CN(C)c1nc(N[C@H]2CC[C@@H](NC(=S)NC(C)(C)C)CC2)nc2c1CCCC2` [compound 1961], the class is reported as 3 (Class 3 The value of percent of control at 10^−7 M was more than 60% or the value of IC50 was more than 200 nM.). With `CN(C)c1nc(N[C@H]2CC[C@@H](NC(=S)NCc3ccc(F)cc3)CC2)nc2c1CCCC2` [compound 2015], the class is 3 (Class 3 The value of percent of control at 10^−7 M was more than 60% or the value of IC50 was more than 200 nM.). The same measure, in the same setting: under `Cc1ccc(Cl)cc1NC(=S)N[C@H]1CC[C@@H](Nc2nc3c(c(N(C)C)n2)CCCC3)CC1` [compound 1994] stands 3 (Class 3 The value of percent of control at 10^−7 M was more than 60% or the value of IC50 was more than 200 nM.); under `CN(C)c1cc(N[C@H]2CC[C@@H](NC(=O)C3(c4ccc(Cl)cc4)CCCC3)CC2)nc2ccccc12` [compound 99], 2 (Class 2: The value of percent of control at 10^−7 M was from 40% to 60% or the value of IC′50 was from 50 nM to 200 nM.); under `CN(C)c1cc(N[C@H]2CC[C@@H](CNC(=O)c3cc(C(C)(C)C)nn3Cc3ccccc3)CC2)nc2ccccc12` [compound 212], 3 (Class 3 The value of percent of control at 10^−7 M was more than 60% or the value of IC50 was more than 200 nM.).

The same experiment, now with this note: activity class 1-3: percent of control at 10^-7 M or IC50.
On to `CN(C)c1cc(N[C@H]2CC[C@@H](NC(=O)Oc3cccc(C(F)(F)F)c3)CC2)nc2ccccc12` [compound 1542], for which the class is on record as 3 (Class 3 The value of percent of control at 10^−7 M was more than 60% or the value of IC50 was more than 200 nM.). Still for that read-out and setting: then `Cc1ccccc1NC(=O)N[C@H]1CC[C@@H](Nc2nc3c(c(N(C)C)n2)CCCC3)CC1` [compound 1668], with 3 (Class 3 The value of percent of control at 10^−7 M was more than 60% or the value of IC50 was more than 200 nM.); and `CN(C)c1nc(N[C@H]2CC[C@@H](NC(=O)Nc3ccc(F)cc3F)CC2)nc2c1CCCC2` [compound 1661], with 3 (Class 3 The value of percent of control at 10^−7 M was more than 60% or the value of IC50 was more than 200 nM.).

The same experiment, now with this note: activity class per percent of control at 10^-7 M or IC50.
On to `COC(C(=O)N[C@H]1CC[C@@H](Nc2nc3c(c(N(C)C)n2)CCCC3)CC1)c1ccccc1` (relative stereo) [compound 1052], for which the class was 2 (Class 2: The value of percent of control at 10^−7 M was from 40% to 60% or the value of IC′50 was from 50 nM to 200 nM.). As to `CN(C)c1nc(N[C@H]2CC[C@@H](NC(=O)Cc3c[nH]c4ccc(OCc5ccccc5)cc34)CC2)nc2c1CCCC2` [compound 1024], the class is listed as 3 (Class 3 The value of percent of control at 10^−7 M was more than 60% or the value of IC50 was more than 200 nM.).

Staying with this experiment, now noted: class 1-3 by percent of control at 10^-7 M or IC50.
Regarding `CN(C)c1nc(N[C@H]2CC[C@@H](CNC(=O)Cc3ccc(Cl)cc3)CC2)nc2c1CCCC2` [compound 590], the class is listed as 3 (Class 3 The value of percent of control at 10^−7 M was more than 60% or the value of IC50 was more than 200 nM.).

Still in this experiment, the particulars now being: class by percent of control at 10^-7 M or IC50.
For the molecule `CN(C)c1cc(N[C@H]2CC[C@@H](CNCc3csc4ccccc34)CC2)nc2ccccc12` [compound 1178], the class is 3 (Class 3 The value of percent of control at 10^−7 M was more than 60% or the value of IC50 was more than 200 nM.). The same measure, in the same setting: then `CN(C)c1nc(N[C@H]2CC[C@@H](CNC(=O)c3ccccc3I)CC2)nc2c1CCCC2` [compound 657], with 3 (Class 3 The value of percent of control at 10^−7 M was more than 60% or the value of IC50 was more than 200 nM.); and `CN(C)c1cc(N[C@H]2CC[C@@H](NC(=O)NCc3ccc(F)cc3)CC2)nc2ccccc12` [compound 2155], with 3 (Class 3 The value of percent of control at 10^−7 M was more than 60% or the value of IC50 was more than 200 nM.).

Turning to `CSc1ccc(CN[C@H]2CC[C@@H](Nc3nccc(N(C)C)n3)CC2)cc1` [compound 1239], the class is 3 (Class 3 The value of percent of control at 10^−7 M was more than 60% or the value of IC50 was more than 200 nM.). As to `CN(C)c1ccnc(N[C@H]2CC[C@@H](NC(=O)c3cc([N+](=O)[O-])cn3C)CC2)n1` [compound 907, N-(cis-4-{[4-(dimethylamino)pyrimidin-2-yl]amino}cyclohexyl)-1-methyl-4-nitro-1H-pyrrole-2-carboxamide], the class is reported as 1 (Class 1: The value of percent of control at 10^−7 M was less than 40% or the value of IC50 was less than 50 nM.). Still for that read-out and setting: under `CN(C)c1ccnc(N[C@H]2CC[C@@H](NC(=O)c3cc(Cl)sc3Cl)CC2)n1` [compound 301] stands 2 (Class 2: The value of percent of control at 10^−7 M was from 40% to 60% or the value of IC′50 was from 50 nM to 200 nM.); under `Cc1cccc(NC(=O)N[C@H]2CC[C@@H](Nc3nc4c(c(N(C)C)n3)CCCC4)CC2)c1` [compound 1840], 3 (Class 3 The value of percent of control at 10^−7 M was more than 60% or the value of IC50 was more than 200 nM.); under `CN(C)c1cc(N[C@H]2CC[C@@H](NC(=O)c3c4ccccc4cc4ccccc34)CC2)nc2ccccc12` [compound 753], 3 (Class 3 The value of percent of control at 10^−7 M was more than 60% or the value of IC50 was more than 200 nM.). `COc1ccc2c(CC(=O)N[C@H]3CC[C@@H](Nc4cc(N(C)C)c5ccccc5n4)CC3)cc(=O)oc2c1` [compound 715]: the class is 3 (Class 3 The value of percent of control at 10^−7 M was more than 60% or the value of IC50 was more than 200 nM.).

On to `CN(C)c1ccnc(N[C@H]2CC[C@@H](NC(=O)COc3ccc(Cl)cc3)CC2)n1` [compound 314], for which the class was 1 (Class 1: The value of percent of control at 10^−7 M was less than 40% or the value of IC50 was less than 50 nM.). The same measure, in the same setting: then `CN(C)c1cc(N[C@H]2CC[C@@H](CNC(=O)c3c(F)ccc(F)c3Cl)CC2)nc2ccccc12` [compound 236], with 3 (Class 3 The value of percent of control at 10^−7 M was more than 60% or the value of IC50 was more than 200 nM.); and `CN(C)c1cc(N[C@H]2CC[C@@H](NC(=S)Nc3ccc(N(C)C)c4ccccc34)CC2)nc2ccccc12` [compound 2177, N-[4-(dimethylamino)-1-naphthyl]-N′-(cis-4-{[4-(dimethylamino)quinolin-2-yl]amino}cyclohexyl)thiourea], with 2 (Class 2: The value of percent of control at 10^−7 M was from 40% to 60% or the value of IC′50 was from 50 nM to 200 nM.); and `Cc1ccc(C(=O)N[C@H]2CC[C@@H](Nc3nccc(N(C)C)n3)CC2)cc1F` [compound 292], with 3 (Class 3 The value of percent of control at 10^−7 M was more than 60% or the value of IC50 was more than 200 nM.). Still for that read-out and setting: then `CN(C)c1ccnc(N[C@H]2CC[C@@H](CNC(=O)c3ccc(Br)s3)CC2)n1` [compound 925], with 3 (Class 3 The value of percent of control at 10^−7 M was more than 60% or the value of IC50 was more than 200 nM.); and `CN(C)c1cc(N[C@H]2CC[C@@H](CNC(=O)c3cc(F)ccc3Cl)CC2)nc2ccccc12` [compound 225], with 3 (Class 3 The value of percent of control at 10^−7 M was more than 60% or the value of IC50 was more than 200 nM.); and `Cc1cc(CNC[C@H]2CC[C@@H](Nc3cc(N(C)C)c4ccccc4n3)CC2)ccc1O` [compound 1194], with 3 (Class 3 The value of percent of control at 10^−7 M was more than 60% or the value of IC50 was more than 200 nM.). Same read-out and setting: under `Cc1cc(Br)ccc1NC(=S)N[C@H]1CC[C@@H](Nc2nc3c(c(N(C)C)n2)CCCC3)CC1` [compound 1764, N-(4-bromo-2-methylphenyl)-N′-(cis-4-{[4-(dimethylamino)-5,6,7,8-tetrahydroquinazolin-2-yl]amino}cyclohexyl)thiourea] stands 1 (Class 1: The value of percent of control at 10^−7 M was less than 40% or the value of IC50 was less than 50 nM.); under `CCOC(=O)c1ccccc1NC(=O)N[C@H]1CC[C@@H](Nc2nc3c(c(N(C)C)n2)CCCC3)CC1` [compound 1857], 3 (Class 3 The value of percent of control at 10^−7 M was more than 60% or the value of IC50 was more than 200 nM.); under `COc1ccc(Cl)cc1CNC[C@H]1CC[C@@H](Nc2cc(N(C)C)c3ccccc3n2)CC1` [compound 1474], 3 (Class 3 The value of percent of control at 10^−7 M was more than 60% or the value of IC50 was more than 200 nM.). As for `COc1cc(OC)c(NC(=O)N[C@H]2CC[C@@H](Nc3nccc(N(C)C)n3)CC2)cc1Cl` [compound 2247], the class was 1 (Class 1: The value of percent of control at 10^−7 M was less than 40% or the value of IC50 was less than 50 nM.).

The experiment is the same for the next values; noted with them: class by percent of control at 10^−7 M or IC50.
For the molecule `Cc1ccc(C(=O)N[C@H]2CC[C@@H](CNc3ncc(C)c(N(C)C)n3)CC2)cc1` [compound 2713], the class is reported as 3 (Class 3 The value of percent of control at 10^−7 M was more than 60% or the value of IC50 was more than 200 nM.). As to `Cc1cnc(N[C@H]2CC[C@@H](CNC(=O)c3ccc(C(F)(F)F)c(F)c3)CC2)nc1N(C)C` [compound 2705, N-[(cis-4-{[4-(dimethylamino)-5-methylpyrimidin-2-yl]amino}cyclohexyl)methyl]-3-fluoro-4-(trifluoromethyl)benzamide], the class is 2 (Class 2: The value of percent of control at 10^−7 M was from 40% to 60% or the value of IC′50 was from 50 nM to 200 nM.). Regarding `Cc1cc(N(C)C)nc(N[C@H]2CC[C@@H](C(=O)NCc3cc(Cl)cc(Cl)c3)CC2)n1` [compound 2810, cis-N-(3,5-dichlorobenzyl)-4-{[4-(dimethylamino)-6-methylpyrimidin-2-yl]amino}cyclohexanecarboxamide], the class is 1 (Class 1: The value of percent of control at 10^−7 M was less than 40% or the value of IC50 was less than 50 nM.).

With `Cc1nc(N[C@H]2CC[C@@H](NC(=O)c3ccc(C(F)(F)F)cc3)CC2)nc(N(C)C)c1C` [compound 2850, N-(cis-4-{[4-(dimethylamino)-5,6-dimethylpyrimidin-2-yl]amino}cyclohexyl)-4-(trifluoromethyl)benzamide], the class is 1 (Class 1: The value of percent of control at 10^−7 M was less than 40% or the value of IC50 was less than 50 nM.).
